The text below walks through data of article PMC5522529, “Mechanisms of Paradoxical Activation of AMPK by the Kinase Inhibitors SU6656 and Sorafenib” (Cell Chemical Biology, 2017).

The target in one assay is T1, AMPK-α1 (WT) (Homo sapiens, UniProt Q13131).
T1 construct: we expressed FLAG-tagged full-length AMPK-α1 either as the WT or the AT mutant; expressed in transfected cells; host or cells: HEK293
Nature of the assay: AMPK activity of FLAG-tagged AMPK-α1 (WT) expressed in HEK293 cells. The assay is classed as cell-based. The conditions noted are these: for AMPK activity and Thr172 phosphorylation: WT FLAG-α1, A769662 300 μM, berberine 300 μM, phenformin 10 mM, troglitazone 100 μM, oligomycin 1 μM, SU6656 100 μM. An excerpt:
(§1) (B) Western blotting of the same preparations as in (A). […] (D) Allosteric activation of WT and mutant α1β1γ1 complexes by MT 63-78, curve fitting as for (C). […] (E) Allosteric activation of WT and mutant α1β1γ1 complexes by AMP. Data were fitted to the equation for activation/inactivation by AMP ([Gowans et al., 2013]). […] (F) Activation of WT and AA mutant by various AMPK activators in HEK293 cells. […] FLAG-tagged complexes were isolated by immunoprecipitation and AMPK activity determined (mean ± SEM, n = 2).
(§2) We next expressed the FLAG-tagged WT or AA mutant of AMPK-α1 by transient transfection in HEK293 cells, treated with various agents, and measured AMPK activity in anti-FLAG immunoprecipitates. In Figure 4F, the results are expressed as absolute activities and are accompanied by blots showing Thr172 phosphorylation.
The α1-KD was precipitated using anti-FLAG and endogenous AMPK complexes using anti-α1 antibody, and activity determined. […] (B) Western blots (n = 2) using the indicated antibodies; samples from experiment in (A). (C) DNAs encoding FLAG-tagged AMPK-α1 (WT or AT mutant) were expressed by transient transfection in HEK293 cells, the cells treated with increasing concentrations of SU6656 for 1 hr, AMPK complexes precipitated with anti-FLAG, and activity measured.

The next assay addresses T2, AMPK-γ2 (WT) (Homo sapiens, UniProt Q9UGJ0).
T2 construct: expressed in transfected cells; host or cells: Flp-In T-REx 293 (HEK293), tetracycline-inducible
Briefly: AMPK activity in HEK293 cells expressing WT AMPK-γ2. The assay is classed as cell-based. The conditions noted are these: 1 hr. From the text: The next possibility was that, like several other AMPK-activating drugs, SU6656 inhibits mitochondrial ATP synthesis, and thus activates AMPK indirectly by increasing cellular AMP/ADP. To test this, we used cell lines inducibly expressing either WT AMPK-γ2 or an AMP/ADP-resistant R531G (RG) mutant ([Hawley et al., 2010]). […] There were no effects of SU6656 on cellular oxygen uptake, unlike berberine. Subsequent addition of the uncoupler 2,4-dinitrophenol (DNP), which prevents the respiratory chain from being limited by ADP supply, increased oxygen uptake identically in control and SU6656-treated cells but had no effect following berberine, as expected for a complex I inhibitor (Figure S2).
(§3) (B) WT or RG cells were treated as in (A) and nucleotides extracted for analysis (mean ± SD, n = 3). […] (E) (See also Figure S2) Time courses of cellular oxygen uptake before and after addition of the indicated concentrations of sorafenib (SO, μM), SU6656 (100 μM) or phenformin (PHEN, 10 mM) (mean ± SEM, n = 4). (F) Effect of various concentrations of sorafenib or phenformin (10 mM) on activation (top, mean ± SEM, n = 3) or phosphorylation (bottom) of AMPK in cells expressing wild-type AMPK-γ2 (WT) or the R531G mutant AMPK-γ2 (RG). In all panels, asterisks show significant differences from DMSO controls (ns, not significant). In (B), daggers (†) show significant differences between results in WT and RG cells. *p < 0.05, **p < 0.01, ***p < 0.001, ****p < 0.0001, ^††††p < 0.0001.
HEK-293 cells stably expressing tetracycline-inducible FLAG-tagged human AMPK-γ2, or an R531G mutant, were generated by introducing the corresponding DNAs into Flp-In™ T-REx™ 293 cells ([Auciello et al., 2014]). Expression of the FLAG-tagged constructs was induced for 48 hr using tetracycline (1 μg.ml^-1) prior to addition of compounds under test. Transient transfections were carried out 36-48 hr prior to experiments, using Fugene 6 according to manufacturers’ instructions.

Assay [1] deals with T3, α1 kinase domain (α1-KD, residues 1–312) (Homo sapiens, UniProt Q13131).
T3 construct: amplifying residues 1-312 with an N-terminal FLAG-tag; expressed in transfected cells; host or cells: HEK293 (transient transfection, pcDNA5 FRT)
T3 sequence (Q13131 1-312): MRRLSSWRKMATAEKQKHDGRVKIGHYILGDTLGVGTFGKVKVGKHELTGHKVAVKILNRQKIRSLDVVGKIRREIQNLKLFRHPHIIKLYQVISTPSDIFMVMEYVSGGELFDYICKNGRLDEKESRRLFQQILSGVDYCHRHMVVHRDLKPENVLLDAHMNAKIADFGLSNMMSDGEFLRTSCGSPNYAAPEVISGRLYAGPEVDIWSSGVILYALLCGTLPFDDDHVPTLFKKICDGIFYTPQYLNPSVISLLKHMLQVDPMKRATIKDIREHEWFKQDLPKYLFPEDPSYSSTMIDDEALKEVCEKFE
Briefly: Activity of FLAG-tagged α1 kinase domain expressed in HEK293 cells. The assay is classed as cell-based. The conditions noted are these: 1 hr. An excerpt: (§4) We next expressed an FLAG-tagged α1 kinase domain (α1-KD, residues 1–312) by transient transfection in HEK293 cells, treated the cells with various AMPK activators, and then assayed both the expressed α1-KD (precipitated using anti-FLAG) and endogenous full-length α1 complexes (precipitated using anti-α1 antibodies recognizing an epitope outside the α1-KD). […] This was also observed with A23187, as expected since this ionophore increases intracellular Ca^2+ and activates the alternate upstream kinase CaMKK2.
(§5) The α1-KD was precipitated using anti-FLAG and endogenous AMPK complexes using anti-α1 antibody, and activity determined. Results (mean ± SD, n = 2) are expressed relative to activities in DMSO controls. (B) Western blots (n = 2) using the indicated antibodies; samples from experiment in (A). (C) DNAs encoding FLAG-tagged AMPK-α1 (WT or AT mutant) were expressed by transient transfection in HEK293 cells, the cells treated with increasing concentrations of SU6656 for 1 hr, AMPK complexes precipitated with anti-FLAG, and activity measured. Results (mean ± SD, n = 3) are expressed relative to the DMSO control. […] Results (mean ± SD, n = 3) are expressed relative to the DMSO control. **p < 0.01, ***p < 0.001, ****p < 0.0001, ^†††p < 0.001; ns, not significant.
A plasmid encoding the AMPK-α2 kinase domain (α2-KD) was made by amplifying residues 1-310 with 5' BamH1 and 3' Xho1 sites, the resulting PCR product was cloned into pGEX6P2. Point mutations were generated using the Quikchange II site-directed mutagenesis kit (Stratagene) and confirmed by DNA sequencing.

Another assay deals with HEK293 cells. Briefly: Cellular oxygen uptake. The assay is classed as cell-based, human. The protocol:
as §3
Cellular oxygen consumption rate was measured using a Seahorse XF24 Extracellular Flux Analyser according to manufacturers’ instructions, as specified previously ([Hawley et al., 2010]).
Oxygen uptake of HEK-293 cells measured under basal conditions
(open bars), after addition of the indicated concentration of SU6656 or berberine (300 µM) (gray bars), then after subsequent addition of the uncoupler 2,4-dinitrophenol (DNP, hatched bars, 100 µM) […]
different before and after addition of SU6656 or berberine, while […]
subsequent addition of DNP.

For assay [2], the target named is T4, endogenous full-length α1 complexes (Homo sapiens, UniProt Q13131).
T4 construct: endogenous in cells
T4 sequence (Q13131 whole entry): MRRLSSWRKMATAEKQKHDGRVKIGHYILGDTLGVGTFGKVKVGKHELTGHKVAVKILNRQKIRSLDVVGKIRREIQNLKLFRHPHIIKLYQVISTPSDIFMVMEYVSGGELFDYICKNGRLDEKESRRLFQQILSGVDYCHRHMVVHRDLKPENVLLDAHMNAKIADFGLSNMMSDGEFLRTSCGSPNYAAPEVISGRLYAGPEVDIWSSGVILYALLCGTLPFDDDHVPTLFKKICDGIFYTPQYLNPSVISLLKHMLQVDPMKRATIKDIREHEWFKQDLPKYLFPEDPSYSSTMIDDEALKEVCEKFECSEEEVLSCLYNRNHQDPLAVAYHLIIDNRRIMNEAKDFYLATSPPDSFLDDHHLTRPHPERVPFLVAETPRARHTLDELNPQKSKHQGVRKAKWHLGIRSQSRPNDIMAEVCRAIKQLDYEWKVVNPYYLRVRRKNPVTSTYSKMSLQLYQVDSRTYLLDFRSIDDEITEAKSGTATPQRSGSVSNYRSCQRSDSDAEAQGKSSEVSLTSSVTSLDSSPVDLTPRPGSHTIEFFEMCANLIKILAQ
T4 sequence (P54619 whole entry partner): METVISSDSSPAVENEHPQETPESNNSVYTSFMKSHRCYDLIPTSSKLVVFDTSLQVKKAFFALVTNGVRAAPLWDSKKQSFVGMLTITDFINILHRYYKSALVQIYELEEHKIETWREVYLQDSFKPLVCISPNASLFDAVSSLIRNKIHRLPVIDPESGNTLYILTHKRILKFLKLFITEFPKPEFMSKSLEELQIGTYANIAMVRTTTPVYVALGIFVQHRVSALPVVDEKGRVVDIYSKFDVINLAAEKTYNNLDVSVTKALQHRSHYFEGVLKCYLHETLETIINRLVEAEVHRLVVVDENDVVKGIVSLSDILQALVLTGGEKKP
Nature of the assay: Activity of endogenous full-length α1 complexes in HEK293 cells. The assay is classed as cell-based. The conditions noted are these: 1 hr.
Source text: as §4, §5

Another assay has as its target T5, AMPK-α1 AA mutant (Homo sapiens, UniProt Q13131, K40A/K42A).
T5 construct: Plasmid encoding full-length human AMPK-α1; expressed in transfected cells; host or cells: HEK293
Briefly: AMPK activity of FLAG-tagged AMPK-α1 K40A/K42A (AA) mutant expressed in HEK293 cells. The assay is classed as cell-based.
Source text: as §1, §2

T1 sequence (Q13131 whole entry): as the sequence (Q13131 whole entry) above
T1 sequence (P54619 whole entry partner): as the sequence (P54619 whole entry partner) above
T2 sequence (Q9UGJ0 whole entry): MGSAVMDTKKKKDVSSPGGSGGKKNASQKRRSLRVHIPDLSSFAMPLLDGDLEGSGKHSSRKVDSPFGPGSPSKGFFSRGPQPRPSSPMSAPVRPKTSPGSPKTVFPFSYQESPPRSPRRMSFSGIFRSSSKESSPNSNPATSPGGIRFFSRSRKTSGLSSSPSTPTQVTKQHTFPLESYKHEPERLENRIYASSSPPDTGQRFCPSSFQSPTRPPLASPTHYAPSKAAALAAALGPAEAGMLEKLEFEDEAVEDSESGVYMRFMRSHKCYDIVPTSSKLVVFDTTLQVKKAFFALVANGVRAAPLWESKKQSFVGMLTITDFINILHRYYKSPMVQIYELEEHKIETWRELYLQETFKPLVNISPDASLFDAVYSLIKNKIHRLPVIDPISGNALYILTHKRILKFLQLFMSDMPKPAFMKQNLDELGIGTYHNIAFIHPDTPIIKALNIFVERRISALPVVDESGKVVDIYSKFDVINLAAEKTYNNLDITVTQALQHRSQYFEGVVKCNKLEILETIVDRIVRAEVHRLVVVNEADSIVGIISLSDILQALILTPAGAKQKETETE
T5 sequence (Q13131 whole entry K40A/K42A): as the sequence (Q13131 whole entry) above, with K40A, K42A counted along it
T5 sequence (P54619 whole entry partner): as the sequence (P54619 whole entry partner) above

For `CN(C)S(=O)(=O)c1ccc2c(c1)/C(=C/c1cc3c([nH]1)CCCC3)C(=O)N2` [SU6656], the AMPK activity result on AMPK-α1 (WT) (WT FLAG-α1 (comparison with AT mutant), 1 hr) was “robustly activated”; on AMPK-γ2 (WT), “activated AMPK and enhanced Thr172 phosphorylation in both WT and RG cells”. Also, the “increase in activity and Thr172 phosphorylation” value at AMPK-α1 (WT) (WT FLAG-α1, 100 μM, relative to DMSO control) is 3 fold; at AMPK-α1 AA mutant (AA mutant FLAG-α1, 100 μM, relative to DMSO control), 3 fold. Further, the “AMPK activity and Thr172 phosphorylation” value at AMPK-α1 (WT) (1 hr) is “activated AMPK and caused Thr172 phosphorylation”. Besides, the “kinase activity / Thr172 phosphorylation” value in assay [1] and in assay [2] was “increased kinase activity” in each case. In addition, the cellular oxygen uptake result in the assay with HEK293 cells is “no effects”.
Regarding `COc1ccc2cc3[n+](cc2c1OC)CCc1cc2c(cc1-3)OCO2` [berberine], the “AMPK activity and Thr172 phosphorylation” value on AMPK-α1 (WT) (1 hr) is “activated AMPK and caused Thr172 phosphorylation”. The AMPK activity result on AMPK-γ2 (WT) is “activated AMPK in the WT”. Besides, the “kinase activity / Thr172 phosphorylation” value in assay [1] is “failed to activate or cause Thr172 phosphorylation”; in assay [2], “doing this with the endogenous complexes”. The “effect of AA mutation on AMPK activation” value on AMPK-α1 AA mutant (AA mutant FLAG-α1, same concentrations, 1 hr) is “abolished”.
With `CNC(=O)c1cc(Oc2ccc(NC(=O)Nc3ccc(Cl)c(C(F)(F)F)c3)cc2)ccn1` [sorafenib], the “concentrations that rapidly inhibited cellular oxygen uptake” value with HEK293 cells is 3 to 30 µM.
